This passage reports IC50 results from patent US8637499B2, “Benzoxazepines as inhibitors of PI3K/mTOR and methods of their use and manufacture” (Exelixis, Inc., priority 2009, dated 2014).

One test deals with PI3Kα (Homo sapiens, UniProt P42336). Kind of test: PI3K Biochemical Assays (ATP consumption, luciferase-luciferin chemiluminescence). The conditions noted are these: PI3Kα 1.5 nM, ATP 1 μM, PIP2 10 μM; percent of ATP consumed. The procedure:
PI3Kα activity is measured as the percent of ATP consumed following the kinase reaction using luciferase-luciferin-coupled chemiluminescence. Reactions were conducted in 384-well white, medium binding microtiter plates (Greiner). Kinase reactions were initiated by combining test compounds, ATP, substrate (PIP2), and kinase in a 20 μL volume in a buffer solution. The standard PI3Kalpha assay buffer is composed 50 mM Tris, pH 7.5, 1 mM EGTA, 10 mM MgCl2, 1 mM DTT and 0.03% CHAPS. The standard assay concentrations for enzyme, ATP, and substrate are 1.5 nM, 1 μM, and 10 μM, respectively. The reaction mixture was incubated at ambient temperature for approximately 2 h. Following the kinase reaction, a 10 μL aliquot of luciferase-luciferin mix (Promega Kinase-Glo) was added and the chemiluminescence signal measured using a Victor2 plate reader (Perkin Elmer). Total ATP consumption was limited to 40-60% and IC50 values of control compounds correlate well with literature references. Substituting PI3Kα with PI3KIβ, […], or […], the inhibitory activity of the compounds for the other isoforms of I3K were measured.

The target of a further test is mTORC1 (mTOR/GbL/Raptor) (Homo sapiens, UniProt P42345). Kind of test: mTOR/GbL/Raptor (mTORC1) ELISA Assay. It counts as biochemical. To be noted: 0.2 nM mTORC1, 10 μM ATP, 50 nM NHis-tagged 4E-BP1; phosphorylation of 4E-BP1; read-out: IC50. The procedure: mTOR/GbL/Raptor (mTORC1) ELISA Assay
The measurement of mTORC1 enzyme activity was performed in an ELISA assay format following the phosphorylation of 4E-BP1 protein. All experiments were performed in the 384-well format. Generally, 0.5 μL DMSO containing varying concentrations of the test compound was mixed with 15 μL enzyme solution. Kinase reactions were initiated with the addition of 15 μL of substrates-containing solution. The assay conditions were as follows; 0.2 nM mTORC1, 10 μM ATP and 50 nM NHis-tagged 4E-BP1 in 20 mM Hepes, pH 7.2, 1 mM DTT, 50 mM NaCl, 10 mM MnCl2, 0.02 mg/mL BSA, 0.01% CHAPS, 50 mM β-glycerophosphate. Following an incubation of 120 minutes at ambient temperature, 20 μL of the reaction volume was transferred to a Ni-Chelate-coated 384-well plate. The binding step of the 4E-BP1 protein proceeded for 60 minutes, followed by washing 4 times each with 50 μL of Tris-buffered saline solution (TBS). Anti-phospho-4E-BP1 rabbit-IgG (20 μL, 1:5000) in 5% BSA-TBST (0.2% Tween-20 in TBS) was added and further incubated for 60 minutes. Incubation with a secondary HRP-tagged anti-IgG was similarly performed after washing off the primary antibody (4 washes of 50 μL). Following the final wash step with TBST, 20 μL of SuperSignal ELISA Femto (Pierce Biotechnology) was added and the luminescence measured using an EnVision plate reader.
(In an ELISA, binding on a coated surface is turned into a signal by an enzyme label.)

Sequence of PI3Kα (P42336 whole entry): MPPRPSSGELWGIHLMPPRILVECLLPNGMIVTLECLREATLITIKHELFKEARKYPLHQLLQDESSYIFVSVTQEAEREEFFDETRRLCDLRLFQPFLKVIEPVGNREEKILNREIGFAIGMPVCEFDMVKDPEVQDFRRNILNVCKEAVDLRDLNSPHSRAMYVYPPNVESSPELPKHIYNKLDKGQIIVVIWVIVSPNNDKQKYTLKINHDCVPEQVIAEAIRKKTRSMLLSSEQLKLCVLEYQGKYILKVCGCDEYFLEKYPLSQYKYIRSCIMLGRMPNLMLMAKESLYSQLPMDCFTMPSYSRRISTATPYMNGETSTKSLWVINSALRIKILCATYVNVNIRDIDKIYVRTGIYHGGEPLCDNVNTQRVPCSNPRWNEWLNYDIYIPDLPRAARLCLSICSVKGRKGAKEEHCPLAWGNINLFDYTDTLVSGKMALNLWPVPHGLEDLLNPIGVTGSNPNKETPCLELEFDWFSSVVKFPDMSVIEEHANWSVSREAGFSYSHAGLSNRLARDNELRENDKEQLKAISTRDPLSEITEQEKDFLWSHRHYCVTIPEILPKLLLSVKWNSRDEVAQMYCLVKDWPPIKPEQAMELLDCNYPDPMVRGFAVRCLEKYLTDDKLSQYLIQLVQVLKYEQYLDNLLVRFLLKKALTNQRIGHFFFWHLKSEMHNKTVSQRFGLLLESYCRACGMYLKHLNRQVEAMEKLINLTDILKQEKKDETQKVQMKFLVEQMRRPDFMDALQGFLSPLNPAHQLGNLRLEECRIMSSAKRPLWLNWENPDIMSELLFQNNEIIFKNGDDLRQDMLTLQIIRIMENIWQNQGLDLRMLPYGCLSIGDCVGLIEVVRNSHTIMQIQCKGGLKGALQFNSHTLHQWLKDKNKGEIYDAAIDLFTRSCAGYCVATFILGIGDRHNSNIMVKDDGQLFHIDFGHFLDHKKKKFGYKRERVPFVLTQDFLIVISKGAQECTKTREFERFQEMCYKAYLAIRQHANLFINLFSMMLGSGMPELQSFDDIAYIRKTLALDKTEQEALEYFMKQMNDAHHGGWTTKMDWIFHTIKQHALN
Sequence of PI3Kα (P27986 whole entry partner): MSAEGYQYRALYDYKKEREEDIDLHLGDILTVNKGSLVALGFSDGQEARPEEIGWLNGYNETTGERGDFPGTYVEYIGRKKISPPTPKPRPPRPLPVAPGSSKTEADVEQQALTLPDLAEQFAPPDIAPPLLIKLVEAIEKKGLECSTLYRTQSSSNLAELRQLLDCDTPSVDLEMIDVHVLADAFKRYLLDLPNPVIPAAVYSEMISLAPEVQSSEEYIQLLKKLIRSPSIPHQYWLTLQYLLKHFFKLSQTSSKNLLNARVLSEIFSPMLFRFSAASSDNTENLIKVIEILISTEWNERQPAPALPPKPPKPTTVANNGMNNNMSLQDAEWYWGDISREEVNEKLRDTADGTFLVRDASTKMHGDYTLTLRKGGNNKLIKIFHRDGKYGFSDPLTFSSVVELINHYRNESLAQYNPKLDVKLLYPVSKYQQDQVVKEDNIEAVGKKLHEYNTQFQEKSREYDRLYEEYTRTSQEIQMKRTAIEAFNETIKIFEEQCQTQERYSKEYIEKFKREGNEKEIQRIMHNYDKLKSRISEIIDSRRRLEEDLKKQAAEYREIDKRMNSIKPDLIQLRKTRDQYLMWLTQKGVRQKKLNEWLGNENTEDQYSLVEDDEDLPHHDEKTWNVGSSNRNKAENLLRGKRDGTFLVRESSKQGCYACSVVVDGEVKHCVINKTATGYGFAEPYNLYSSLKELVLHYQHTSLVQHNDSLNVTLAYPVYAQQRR

On to `O=C(N1CCC(C(F)(F)F)CC1)N1CCOc2ccc(-c3ccc(-c4ncc[nH]4)cc3)cc2C1` [Compound 7, 7-[4-(1H-imidazol-2-yl)phenyl]-4-{[4-(trifluoromethyl)piperidin-1-yl]carbonyl}-2,3,4,5-tetrahydro-1,4-benzoxazepine], for which the IC50 at PI3Kα is not above 0.075 µM; at mTORC1 (mTOR/GbL/Raptor) it was not above 0.05 µM.
On the same counts, the results for `CC1CCN(C(=O)N2CCOc3ccc(-c4cncs4)cc3C2)CC1` [Compound 8, 4-[(4-methylpiperidin-1-yl)carbonyl]-7-(1,3-thiazol-5-yl)-2,3,4,5-tetrahydro-1,4-benzoxazepine] are 1 to 3 µM and 0.25 to 0.7 µM.
For `COC(=O)Nc1nc2ccc(-c3ccc4c(c3)CN(C(=O)N3CCC(=O)CC3c3cccc(F)c3)CCO4)cc2[nH]1` (stereo not drawn) [Compound 11, methyl [6-(4-{[2-(3-fluorophenyl)-4-oxopiperidin-1-yl]carbonyl}-2,3,4,5-tetrahydro-1,4-benzoxazepin-7-yl)-1H-benzimidazol-2-yl]carbamate], in that order: not above 0.075 µM and 0.05 to 0.25 µM.
For `COC(=O)Nc1nc2ccc(-c3ccc4c(c3)CN(C(=O)N3CCCCC3c3ccc(F)cc3)CCO4)cc2[nH]1` (stereo not drawn) [Compound 12, methyl [6-(4-{[2-(4-fluorophenyl)piperidin-1-yl]carbonyl}-2,3,4,5-tetrahydro-1,4-benzoxazepin-7-yl)-1H-benzimidazol-2-yl]carbamate], in that order: not above 0.075 µM and 0.05 to 0.25 µM.
In the case of `COC(=O)Nc1nc2ccc(-c3ccc4c(c3)CN(C(=O)N3CCC(CF)CC3)CCO4)cc2[nH]1` [Compound 13, methyl [6-(4-{[4-(fluoromethyl)piperidin-1-yl]carbonyl}-2,3,4,5-tetrahydro-1,4-benzoxazepin-7-yl)-1H-benzimidazol-2-yl]carbamate], the values for the IC50 on PI3Kα and on mTORC1 (mTOR/GbL/Raptor) were 0.075 to 0.2 µM and 0.05 to 0.25 µM, respectively.
On the same counts, the results for `COC(=O)Nc1nc2ccc(-c3ccc4c(c3)CN(C(=O)N3CCC(=O)CC3c3ccc(F)cc3)CCO4)cc2[nH]1` (stereo not drawn) [Compound 14, methyl [6-(4-{[2-(4-fluorophenyl)-4-oxopiperidin-1-yl]carbonyl}-2,3,4,5-tetrahydro-1,4-benzoxazepin-7-yl)-1H-benzimidazol-2-yl]carbamate] are not above 0.075 µM and 0.05 to 0.25 µM.
On the same counts, the results for `COC(=O)Nc1nc2ccc(-c3ccc4c(c3)CN(C(=O)N3CCC(O)(CF)CC3)CCO4)cc2[nH]1` [Compound 15, methyl [6-(4-{[4-(fluoromethyl)-4-hydroxypiperidin-1-yl]carbonyl}-2,3,4,5-tetrahydro-1,4-benzoxazepin-7-yl)-1H-benzimidazol-2-yl]carbamate] are 0.2 to 0.5 µM and 0.05 to 0.25 µM.
For `COC(=O)Nc1nc2ccc(-c3ccc4c(c3)CN(C(=O)N3CCC(=O)CC3c3ccc(F)c(F)c3)CCO4)cc2[nH]1` (stereo not drawn) [Compound 16, methyl [6-(4-{[2-(3,4-difluorophenyl)-4-oxopiperidin-1-yl]carbonyl}-2,3,4,5-tetrahydro-1,4-benzoxazepin-7-yl)-1H-benzimidazol-2-yl]carbamate], in that order: not above 0.075 µM and 0.05 to 0.25 µM.
Regarding `COC(=O)Nc1nc2ccc(-c3ccc4c(c3)CN(C(=O)N3CCC(O)(c5cccc(C(F)(F)F)c5)CC3)CCO4)cc2[nH]1` [Compound 18, methyl {6-[4-({4-hydroxy-4-[3-(trifluoromethyl)phenyl]piperidin-1-yl}carbonyl)-2,3,4,5-tetrahydro-1,4-benzoxazepin-7-yl]-1H-benzimidazol-2-yl}carbamate], the IC50 was not above 0.075 µM at PI3Kα and 0.05 to 0.25 µM at mTORC1 (mTOR/GbL/Raptor).
`COC(=O)Nc1nc2ccc(-c3ccc4c(c3)CN(C(=O)N3CCC(C(F)F)CC3)CCO4)cc2[nH]1` [Compound 19, methyl [6-(4-{[4-(difluoromethyl)piperidin-1-yl]carbonyl}-2,3,4,5-tetrahydro-1,4-benzoxazepin-7-yl)-1H-benzimidazol-2-yl]carbamate]: the concentration for half-maximal inhibition (IC50) at PI3Kα lay in the range of 0.2 to 0.5 µM; on mTORC1 (mTOR/GbL/Raptor), 0.05 to 0.25 µM.
In the case of `COC(=O)Nc1nc2ccc(-c3ccc4c(c3)CN(C(=O)N3[C@@H]5CC[C@H]3C[C@](O)(C(F)(F)F)C5)CCO4)cc2[nH]1` [Compound 20, methyl [6-(4-{[3-(endo)-hydroxy-3-(trifluoromethyl)-8-azabicyclo[3.2.1]oct-8-yl]carbonyl}-2,3,4,5-tetrahydro-1,4-benzoxazepin-7-yl)-1H-benzimidazol-2-yl]carbamate], the 50% inhibitory concentration (IC50) on PI3Kα was not above 0.075 µM; at mTORC1 (mTOR/GbL/Raptor), not above 0.05 µM.
On to `COC(=O)Nc1nc2ccc(-c3ccc4c(c3)CN(C(=O)N3CCC(C#N)CC3)CCO4)cc2[nH]1` [Compound 21, methyl (6-{4-[(4-cyanopiperidin-1-yl)carbonyl]-2,3,4,5-tetrahydro-1,4-benzoxazepin-7-yl}-1H-benzimidazol-2-yl)carbamate], for which the 50% inhibitory concentration (IC50) fell in the range of 0.075 to 0.2 µM against PI3Kα and 0.05 to 0.25 µM on mTORC1 (mTOR/GbL/Raptor).
For `COC(=O)Nc1nc2ccc(-c3ccc4c(c3)CN(C(=O)N3CCC(O)(C(F)(F)F)CC3)CCO4)cc2[nH]1` [Compound 22, methyl [6-(4-{[4-hydroxy-4-(trifluoromethyl)piperidin-1-yl]carbonyl}-2,3,4,5-tetrahydro-1,4-benzoxazepin-7-yl)-1H-benzimidazol-2-yl]carbamate], in that order: 0.2 to 0.5 µM and not above 0.05 µM.
For `CC1(O)CCN(C(=O)N2CCOc3ccc(-c4ccc5nc(N)[nH]c5c4)cc3C2)CC1` [Compound 23, 1-{[7-(2-amino-1H-benzimidazol-6-yl)-2,3-dihydro-1,4-benzoxazepin-4(5H)-yl]carbonyl}-4-methylpiperidin-4-ol], in that order: 0.075 to 0.2 µM and not above 0.05 µM.
For `COC(=O)Nc1nc2ccc(-c3ccc4c(c3)CN(C(=O)N3CCC(C)(O)CC3)CCO4)cc2[nH]1` [Compound 24, methyl (6-{4-[(4-hydroxy-4-methylpiperidin-1-yl)carbonyl]-2,3,4,5-tetrahydro-1,4-benzoxazepin-7-yl}-1H-benzimidazol-2-yl)carbamate], in that order: 0.2 to 0.5 µM and 0.25 to 0.7 µM.
In the case of `COC(=O)Nc1nc2ccc(-c3ccc4c(c3)CN(C(=O)N3C5CCC3CC(=O)C5)CCO4)cc2[nH]1` [Compound 25, methyl (6-{4-[(3-oxo-8-azabicyclo[3.2.1]oct-8-yl)carbonyl]-2,3,4,5-tetrahydro-1,4-benzoxazepin-7-yl}-1H-benzimidazol-2-yl)carbamate], the IC50 was 0.2 to 0.5 µM against PI3Kα and 0.05 to 0.25 µM on mTORC1 (mTOR/GbL/Raptor).
On the same counts, the results for `Nc1nc2ccc(-c3ccc4c(c3)CN(C(=O)N3CCC(CF)CC3)CCO4)cc2[nH]1` [Compound 26, 6-(4-{[4-(fluoromethyl)piperidin-1-yl]carbonyl}-2,3,4,5-tetrahydro-1,4-benzoxazepin-7-yl)-1H-benzimidazol-2-amine] are 0.2 to 0.5 µM and not above 0.05 µM.
On to `Nc1nc2ccc(-c3ccc4c(c3)CN(C(=O)N3CCC(=O)CC3c3ccc(F)c(F)c3)CCO4)cc2[nH]1` (stereo not drawn) [Compound 27, 1-{[7-(2-amino-1H-benzimidazol-6-yl)-2,3-dihydro-1,4-benzoxazepin-4(5H)-yl]carbonyl}-2-(3,4-difluorophenyl)piperidin-4-one], for which the IC50 was 0.075 to 0.2 µM against PI3Kα and not above 0.05 µM at mTORC1 (mTOR/GbL/Raptor).

Usually IC50 stands for the concentration that gives 50% inhibition.
